Experimental data reported in article PMC3513622 (Antiviral research, 2012).
Like-named read-outs stand apart in the source and are kept apart here.

Tests used:
Epstein-Barr virus (EBV) [1] = conditions: for IC50: IgG induction, 0.0005-30μM, EBV genomes by qPCR
EBV early protein EA-D = conditions: for EA-D expression (immunoblot) / level of hyperphosphorylated form of EA-D (top band): 24 hours after induction; for viral reactivation assessed by expression of EA-D, in words: concentration not stated at the place (Fig. 2: 1 and 10μM)
in vitro = conditions: human
Akata cells [2] = tested on: Akata cells
[3] = target: T1, EBV-encoded protein kinase (EBV-PK, BGLF4) (Epstein-Barr virus, UniProt P13288); assay: In vitro kinase assay of GST-BGLF4; type: biochemical; conditions: 10μM inhibitor, MBP substrate, 50μM ATP, filter binding
T1 sequence (P13288 1-429): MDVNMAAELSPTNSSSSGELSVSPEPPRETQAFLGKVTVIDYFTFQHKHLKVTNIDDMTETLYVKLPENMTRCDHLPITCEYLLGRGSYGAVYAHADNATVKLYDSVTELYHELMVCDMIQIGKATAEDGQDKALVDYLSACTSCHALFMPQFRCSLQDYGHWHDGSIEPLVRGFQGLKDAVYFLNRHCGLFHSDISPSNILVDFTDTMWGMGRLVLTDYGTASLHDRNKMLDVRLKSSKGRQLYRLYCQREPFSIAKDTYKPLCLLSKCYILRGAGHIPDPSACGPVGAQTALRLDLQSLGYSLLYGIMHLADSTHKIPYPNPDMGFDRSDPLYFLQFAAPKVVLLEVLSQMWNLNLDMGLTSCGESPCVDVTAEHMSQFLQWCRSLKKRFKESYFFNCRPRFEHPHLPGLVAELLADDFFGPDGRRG

Epstein-Barr virus (EBV) [4] = assay: microbe, parasite or virus in culture; conditions: human gammaherpesvirus 4, Akata, 48 h
[5] = Cell viability of Akata cells, modified MTS assay; conditions: human, latently EBV-infected Akata cells
[6] = tested on: human cytomegalovirus (HCMV) pUL97 protein kinase; conditions: 2002, cited from earlier work
purified EBV-PK = conditions: ref Gershburg et al., 2004; Marschall et al., 2002; cited from earlier work
EBV = conditions: ref Gershburg et al., 2004; Wang et al., 2009; Zacny et al., 1999; cited from earlier work
Akata cells [7] = assay: Cell viability of Akata cells, modified MTS assay; conditions: Akata cells, 48 hours, 0.0005-30μM, modified MTS assay
[8] = 10μM PKI, Akata cells, 48 hours after IgG induction

## Nc1ncnc2c1c(I)cn2[C@@H]1O[C@H](CO)[C@@H](O)[C@H]1O [5-Iodotubercidin]
Epstein-Barr virus (EBV) [1]; [8]
  effect on EBV replication in words: effective in inhibiting the EBV replication
Epstein-Barr virus (EBV) [1]; Akata cells, 48 hours
  IC50: 0.89 µM
EBV early protein EA-D; 1μM PKI, Fig. 2B
  EA-D expression (immunoblot): did not affect the expression of EA-D

## Nc1nc2c(ncn2COCCO)c(=O)[nH]1 [ACV, acyclovir]
Epstein-Barr virus (EBV) [1]; 50μM ACV, Akata cells, 48 hours after IgG induction
  reduction of viral replication relative to DMSO treatment: 88±6%
In vitro
  viability at 48 h, 50 μM: 89 ± 4%

## Cc1ccc(S(=O)(=O)/C=C/C#N)cc1 [BAY 11-7082]
Epstein-Barr virus (EBV) [1]; 10μM PKI, Akata cells, 48 hours after IgG induction, listed as BAY-11-7082
  effect on EBV replication in words: effective in inhibiting the EBV replication
Epstein-Barr virus (EBV) [1]; 10μM PKI, Akata cells, 48 hours after IgG induction, listed as Bay 11-7082
  effect on EBV replication in words: inhibited viral replication
Epstein-Barr virus (EBV) [1]; Akata cells, 48 hours
  IC50: 0.208 µM
Akata cells [2]
  CC50: 2.64 µM
EBV early protein EA-D; 1μM PKI, Fig. 2B
  EA-D expression (immunoblot): intermediate
  level of hyperphosphorylated form of EA-D (top band): more pronounced effect on the levels of the hyperphosphorylated form of EA-D
EBV early protein EA-D; 10μM, Fig. 2A
  expression levels of housekeeping genes (β-actin): loss of β-actin

## COC(=O)/C=C/c1cc(O)ccc1O [Erbstatin analog]
Epstein-Barr virus (EBV) [1]; [8]
  effect on EBV replication in words: inhibited EBV replication in cells
Epstein-Barr virus (EBV) [1]; Akata cells, 48 hours
  IC50: 2.37 µM
EBV early protein EA-D; 1μM PKI, Fig. 2B
  EA-D expression (immunoblot): did not affect the expression of EA-D
EBV early protein EA-D
  viral reactivation assessed by expression of EA-D, in words: did not inhibit viral reactivation

## COC(=O)[C@@]1(O)C[C@H]2O[C@]1(C)n1c3ccccc3c3c4c(c5c6ccccc6n2c5c31)C(=O)NC4 [K252A]
[3]
  inhibition of GST/EBV-PK activity relative to DMSO: about 75%
Epstein-Barr virus (EBV) [1]
  TI (therapeutic index, CC50/IC50 ratio): 6
Epstein-Barr virus (EBV) [1]; 10μM PKI, Akata cells, 48 hours after IgG induction, mean ± sem of 3 experiments
  inhibition of EBV replication relative to DMSO treatment: 92±6%
Epstein-Barr virus (EBV) [1]; Akata cells, 48 hours
  IC50: 0.014 µM
Akata cells [2]
  CC50: 0.08 µM
EBV early protein EA-D; 1μM PKI, Fig. 2B
  EA-D expression (immunoblot): no EA-D expression was detected
EBV early protein EA-D
  viral reactivation assessed by expression of EA-D, in words: block expression of EBV early protein EA-D

## O=C1Cc2c([nH]c3ccc(Br)cc23)-c2ccccc2N1 [Kenpaullone]
Epstein-Barr virus (EBV) [1]
  TI (therapeutic index, CC50/IC50 ratio): 8
Epstein-Barr virus (EBV) [1]; [8]
  effect on EBV replication in words: effective in inhibiting the EBV replication
EBV early protein EA-D; 1μM PKI, Fig. 2B
  EA-D expression (immunoblot): did not affect the expression of EA-D
Epstein-Barr virus (EBV) [4]
  IC50: 0.681 µM
[5]
  CC50 at 48 h: 5.13 µM

## O=c1cc(N2CCOCC2)oc2c(-c3ccccc3)cccc12 [LY 294002]
Epstein-Barr virus (EBV) [1]
  TI (therapeutic index, CC50/IC50 ratio): 3
EBV early protein EA-D; 1μM PKI, Fig. 2B
  EA-D expression (immunoblot): intermediate
  level of hyperphosphorylated form of EA-D (top band): more pronounced effect on the levels of the hyperphosphorylated form of EA-D
In vitro
  CC50: 6.16 µM
Epstein-Barr virus (EBV) [4]
  IC50: 1.83 µM

## CC(C)Nc1nc2cc(Cl)c(Cl)cc2n1[C@H]1O[C@@H](CO)[C@H](O)[C@@H]1O [MBV, maribavir]
[6]; ref Biron et al., Hamirally et al., 2009
  concentration inhibiting pUL97 autophosphorylation activity: 1 μM
Purified EBV-PK
  effect on activity of purified EBV-PK: did not inhibit
EBV
  effect on EBV replication: inhibits EBV replication

## N#CCCn1c2ccccc2c2c3c(c4c5ccccc5[nH]c4c21)C(=O)NC3 [NGIC-I, non-glycosidic indolocarbazole I]
[6]; ref Marschall et al.
  concentration inhibiting pUL97 autophosphorylation activity: 0.5 μM
Purified EBV-PK
  effect on activity of purified EBV-PK: did not inhibit

## CO[C@@H]1[C@H](N(C)C(=O)c2ccccc2)C[C@H]2O[C@]1(C)n1c3ccccc3c3c4c(c5c6ccccc6n2c5c31)C(=O)NC4 [PKC-412]
Epstein-Barr virus (EBV) [1]; 10μM PKI, Akata cells, 48 hours after IgG induction, listed as PKC412
  effect on EBV replication in words: effective in inhibiting the EBV replication
EBV early protein EA-D; 1μM PKI, Fig. 2B
  EA-D expression (immunoblot): no EA-D expression was detected
EBV early protein EA-D
  viral reactivation assessed by expression of EA-D, in words: block expression of EBV early protein EA-D
In vitro
  CC50 at 48 h: 0.056 µM
Epstein-Barr virus (EBV) [4]
  IC50: 0.031 µM

## Cn1cc(C2=C(c3cn(CCCSC(=N)N)c4ccccc34)C(=O)NC2=O)c2ccccc21 [Ro 31-8220]
Epstein-Barr virus (EBV) [1]; [8]
  effect on EBV replication in words: effective in inhibiting the EBV replication
Epstein-Barr virus (EBV) [1]; Akata cells, 48 hours
  TI (therapeutic index, CC50/IC50 ratio): 3
  IC50: 0.398 µM
EBV early protein EA-D; 1μM PKI, Fig. 2B
  EA-D expression (immunoblot): did not affect the expression of EA-D
  level of hyperphosphorylated form of EA-D (top band): increased level of this form
Akata cells [7]
  CC50: 1.15 µM

## CC(=O)c1c(O)c(C)c(O)c(Cc2c(O)c3c(c(C(=O)/C=C/c4ccccc4)c2O)OC(C)(C)C=C3)c1O [Rottlerin]
Epstein-Barr virus (EBV) [1]; [8]
  effect on EBV replication in words: effective in inhibiting the EBV replication
Epstein-Barr virus (EBV) [1]; Akata cells, 48 hours
  TI (therapeutic index, CC50/IC50 ratio): 1
EBV early protein EA-D; 1μM PKI, Fig. 2B
  EA-D expression (immunoblot): did not affect the expression of EA-D
In vitro
  CC50 at 48 h: 1 µM
Epstein-Barr virus (EBV) [4]
  IC50: 0.983 µM

## CN[C@@H]1C[C@H]2O[C@@](C)([C@@H]1OC)n1c3ccccc3c3c4c(c5c6ccccc6n2c5c31)C(=O)NC4 [Staurosporine]
Epstein-Barr virus (EBV) [1]; [8]
  effect on EBV replication in words: inhibited viral replication
Epstein-Barr virus (EBV) [1]; 10μM PKI, Akata cells, 48 hours after IgG induction, listed as Staurosporin
  effect on EBV replication in words: significantly reduced the EBV genome copy numbers
EBV early protein EA-D
  viral reactivation assessed by expression of EA-D, in words: block expression of EBV early protein EA-D
In vitro
  CC50: 0.004 µM

## CC(C)(C)c1cc(C=C(C#N)C#N)cc(C(C)(C)C)c1O [Tyrphostin 9]
Epstein-Barr virus (EBV) [1]; Akata cells, 48 hours
  TI (therapeutic index, CC50/IC50 ratio): 3
  IC50: 0.217 µM
EBV early protein EA-D; 1μM PKI, Fig. 2B
  EA-D expression (immunoblot): did not affect the expression of EA-D
Akata cells [7]
  CC50: 0.573 µM

## N#CC(=C(/N)Sc1ccccc1N)/C(C#N)=C(/N)Sc1ccccc1N [U-0126]
Epstein-Barr virus (EBV) [1]
  TI (therapeutic index, CC50/IC50 ratio): 13
Epstein-Barr virus (EBV) [1]; [8]
  effect on EBV replication in words: effective in inhibiting the EBV replication
Epstein-Barr virus (EBV) [1]; Akata cells, 48 hours
  IC50: 0.552 µM
Akata cells [2]
  CC50: 7.38 µM
EBV early protein EA-D; 1μM PKI, Fig. 2B
  EA-D expression (immunoblot): did not affect the expression of EA-D
EBV early protein EA-D; 10μM PKI, Fig. 2A
  EA-D expression (immunoblot): remain relatively high
EBV early protein EA-D
  viral reactivation assessed by expression of EA-D, in words: did not inhibit viral reactivation

## COC[C@H]1OC(=O)c2coc3c2[C@@]1(C)C1=C(C3=O)[C@@H]2CCC(=O)[C@@]2(C)C[C@H]1OC(C)=O [Wortmannin]
Epstein-Barr virus (EBV) [1]
  TI (therapeutic index, CC50/IC50 ratio): 13
Epstein-Barr virus (EBV) [1]; [8]
  effect on EBV replication in words: effective in inhibiting the EBV replication
EBV early protein EA-D; 1μM PKI, Fig. 2B
  EA-D expression (immunoblot): no EA-D expression was detected
EBV early protein EA-D
  viral reactivation assessed by expression of EA-D, in words: inhibited EA-D expression
In vitro
  CC50 at 48 h: 4.69 µM
Epstein-Barr virus (EBV) [4]
  IC50: 0.367 µM

## O=c1c(O)c(-c2ccc(O)c(O)c2)oc2cc(O)cc(O)c12 [quercetin]
Epstein-Barr virus (EBV) [1]; [8]
  effect on EBV replication in words: lack of activity
